Data on one molecule can be found in article PMC4913735, “Non‐glycosidic compounds can stimulate both human and mouse iNKT cells” (European Journal of Immunology, 2016).

The target of the assay is human iNKT‐cell TCR (Homo sapiens, UniProt A0A0B4J240+P15813). As to the kind of experiment: SPR (BIAcore) binding of soluble human iNKT‐cell TCR to hCD1d/lipid complexes. The method, then: Two analogs of ThrCer, ThrCer 6, and ThrCer 7 were synthesized. […] We first carried out measurements to assess the binding affinity of these ThrCer analogs to human iNKT‐cell TCR (Fig. 1B). Recombinant human CD1d (hCD1d) molecules were refolded in vitro with ThrCer 6 and ThrCer 7 separately and coupled to BIAcore chips, over which refolded human iNKT‐cell TCR was injected at different concentrations 34. […] Importantly, these findings were consistent with data obtained using tetrameric human iNKT‐cell TCRs as a staining reagent to identify lipid/CD1d complexes on the surface of C1R cells that had been transfected with hCD1d cDNA (hCD1d C1R cells) and subsequently loaded with the different lipids 34 (Fig. 1C).
Soluble human invariant TCR was generated as previously described 34 where both the Vα24 and Vβ11 chains were individually overexpressed in Escherichia coli, purified from the inclusion bodies, then refolded, and purified to generate the TCR heterodimers, according to Boulter et al. 43. The murine TCR was generated according to Pellici et al. as a chimeric molecule (with variable murine regions and human constant regions) 44. The hybrid alpha chains and beta chains were individually expressed in E. coli and purified from the inclusion bodies, then refolded as above.
SPR experiments were performed with a BIAcore 3000 to measure the affinity and kinetics of iNKT‐cell TCR binding to human CD1d–ligand complexes. In brief, approximately 1000 RU of the biotinylated hCD1d–lipid complexes were immobilized onto streptavidin‐coated CM5 sensor chips (BIAcore). Aliquots of purified TCR with increasing concentrations were passed over immobilized hCD1d–lipid complex at a flow rate of 10 μL/min for the equilibrium‐binding experiments or 50 μL/min for the kinetics experiments. The dissociation constants, K d, were calculated by fitting the data from the equilibrium‐binding experiment to a non‐linear regression saturation binding model (GraphPad Prism 5.0), whereas the k off data were estimated from the kinetics experiments by fitting the data with the built‐in models of the BIAeval3.1 software (BIAcore).
For orientation: Surface plasmon resonance follows binding to a sensor surface in real time, without labels.

Chain of human iNKT‐cell TCR (P01848 1-93): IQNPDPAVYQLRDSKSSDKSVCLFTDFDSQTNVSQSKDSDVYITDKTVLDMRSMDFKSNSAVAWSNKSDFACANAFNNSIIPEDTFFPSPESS
Chain of human iNKT‐cell TCR (P61769 21-119, further chain): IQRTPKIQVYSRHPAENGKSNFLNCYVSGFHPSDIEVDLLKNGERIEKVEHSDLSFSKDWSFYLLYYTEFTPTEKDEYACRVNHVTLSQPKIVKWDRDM
Chain of human iNKT‐cell TCR (A0A0B4J240 22-114): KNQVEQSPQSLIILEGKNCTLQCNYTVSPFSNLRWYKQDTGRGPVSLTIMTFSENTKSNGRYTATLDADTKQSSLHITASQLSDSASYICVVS
Chain of human iNKT‐cell TCR (P01850 1-129, further chain): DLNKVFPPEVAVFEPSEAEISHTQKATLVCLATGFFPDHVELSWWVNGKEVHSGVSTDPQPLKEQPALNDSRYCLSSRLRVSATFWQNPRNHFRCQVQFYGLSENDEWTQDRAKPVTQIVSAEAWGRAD
Chain of human iNKT‐cell TCR (P15813 20-301): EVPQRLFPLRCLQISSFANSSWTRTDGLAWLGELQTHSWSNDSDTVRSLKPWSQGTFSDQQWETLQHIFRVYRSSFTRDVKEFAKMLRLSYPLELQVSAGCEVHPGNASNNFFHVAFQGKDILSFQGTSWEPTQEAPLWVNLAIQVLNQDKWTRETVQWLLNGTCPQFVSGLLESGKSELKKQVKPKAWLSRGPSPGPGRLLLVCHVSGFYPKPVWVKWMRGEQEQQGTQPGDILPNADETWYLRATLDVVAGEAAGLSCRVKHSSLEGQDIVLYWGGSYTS

For `CCCCCCCCCCCCCCCCCCCCCCCCCC(=O)N[C@@H](COC[C@H](O)[C@@H](O)CO)[C@H](O)[C@H](O)CCCCCCCCCCCCCC` [ThrCer, threitolceramide, reference compound], under “SPR equilibrium binding, hCD1d refolded with lipid, read-out: K d, human iNKT‐cell TCR binding to hCD1d/lipid complex”, the Kd was 3.15 µM. In addition, for the setting “SPR kinetics experiment, read-out: k off, human iNKT‐cell TCR from hCD1d/lipid complex”, the koff came out at 0.114 s⁻¹.
